Values quoted from earlier work as cited in US6645994B1, “Method of treating dry eye disorders” (Alcon, Inc., priority 2001, dated 2003).

Legend:
mucin subtype MUC1 = conditions: literature report, Cornea 2000
[1] = test system: soluble goblet cell mucins (MUC2, MUC5AC); conditions: literature report, Cornea 2000
acyl-CoA synthetase = conditions: compared with triacsins A, B and C

Compound	secretion of mucin subtype MUC1 (mucin subtype MUC1)	secretion of soluble goblet cell mucins (MUC2, MUC5AC) [1]	relative potency as acyl-CoA synthetase inhibitor among triacsins (acyl-CoA synthetase)
CCCCC[C@H](O)/C=C/C=C\C/C=C\C/C=C\CCCC(=O)O [15(S)-HETE]	effective secretagogue	inability of 15(S)-HETE to stimulate secretion	
CC/C=C/C=C/C=C/C=C/C=NN=NO [Triacsin C, 1-hydroxy-3-(E,E,E,E-2′4′6′8′-undecatetraenylidine) triazene]			most potent of these compounds
